{"source": "the NIST ThermoML archive (doi:10.1021/je800646h)", "settings": "Crystal; DTA", "note": "± gives the expanded uncertainty stated by the source.", "data": [{"smiles": "Nc1ccc(O)c2c1C(=O)c1c(O)cc(Br)c(N)c1C2=O", "note": "[1,5-diaminobromo-4,8-dihydroxyanthraquinone]", "values": [{"measurement": "Triple point temperature", "result": "453.4 ± 1.1", "unit": "K"}]}]}
